Experimental data: paper PMC8903829 (eLife, 2022)
Several values for one entry are separate records, joined by “and”; a condition that tells them apart may be missing. Identical values can stand only once.

Tested on: fast spiking interneurons
Experiment: Current-clamp recording in brain slices, action-potential firing
Assay type: cell-based, mouse
Conditions: for Fast spiking interneurons APs/1s: 0.25 μM, individual neurons; for Cumulative number of action potentials fired by each cell on increasing current injections: 250 nM, fast spiking interneurons
Protocol: Parasagittal cortical brain slices were prepared from> P21 mice using standard procedures (adapted from Tai et al., PNAS 2014). Briefly, the mouse was deeply anaesthetized with isoflurane and decapitated. The brain was removed and placed into chilled artificial cerebrospinal fluid (aCSF) solution containing (in mM): 125 NaCl, 25 NaHCO3, 2.5 KCl, 1.25 NaH2PO4, 2 CaCl2, 2 MgCl2, 10 d-glucose, pH 7.3, osmolarity adjusted to ~306 mOsm using sucrose. All solutions were saturated with 95% O2 and 5% CO2 constantly perfused with 95% O2/5% CO2. Slices with a thickness of 400 µm were prepared using a vibratome (Ted Pella, Inc). Following sectioning, the slices were placed in a holding chamber and incubated in a water bath at 34 °C for 15 min. The brain slices were removed from the water bath and held at room temperature for 60 min prior to recording.
All experiments involving rodent subjects were performed in accordance with the guidelines of the Canadian Council on Animal Care (CCAC). Following a 60-min incubation at room temperature, a brain slice was selected and placed on the stage of an upright microscope (SliceScope Pro 2000, Scientifica). The slice was constantly perfused with room temperature aCSF, containing 0.1% DMSO as a vehicle control, and oxygenated with 95% O2/5% CO2.The slice was visualized using brightfield microscopy, and a healthy neuron was selected from neocortical layer 5. […] Stimulation was applied in current-clamp mode, and consisted of a series of 1000ms square pulses, beginning at –20 pA and increasing by +20 pA increments (3000ms between pulses).
The slice was incubated in circulating compound for 10 min before repeating the series of square pulse stimulations. Working stock solutions were prepared in DMSO at a concentration of 20 mM.
All data analysis was done offline using ClampFit 10.7 (Molecular Devices). Data are presented as a mean ± SEM. For each sweep, the number of evoked APs was counted, and plotted as a function of current injection (beginning with –20 pA). […] Statistical significance was assessed using paired, two-way, student’s t-test applied at each current injection level with significance considered p < 0.05.

Cc1cc(S(=O)(=O)Nc2cscn2)c(F)cc1N(C)[C@H]1CCN(Cc2ccccc2)C1 [NBI-921352]
Fast spiking interneurons APs/1s (220 pA current injected): 51 APs/1s and 58 APs/1s and 67 APs/1s | Fast spiking interneurons APs/1s (current injected 0 pA): 0 APs/1s | Fast spiking interneurons APs/1s (current injected 20 pA): 0 APs/1s | Fast spiking interneurons APs/1s (current injected 40 pA): 0 APs/1s | Fast spiking interneurons APs/1s (current injected 60 pA, row): 0 APs/1s (2×) and 17 APs/1s | Fast spiking interneurons APs/1s (current injected 80 pA, row): 0 APs/1s and 1 APs/1s and 25 APs/1s | Fast spiking interneurons APs/1s (current injected 100 pA, row): 20 APs/1s and 25 APs/1s and 33 APs/1s | Fast spiking interneurons APs/1s (current injected 120 pA, row): 28 APs/1s and 33 APs/1s and 39 APs/1s | Fast spiking interneurons APs/1s (current injected 140 pA, row): 34 APs/1s and 40 APs/1s and 45 APs/1s | Fast spiking interneurons APs/1s (current injected 160 pA, row): 38 APs/1s and 46 APs/1s and 52 APs/1s | Fast spiking interneurons APs/1s (current injected 180 pA, row): 43 APs/1s and 50 APs/1s and 57 APs/1s | Fast spiking interneurons APs/1s (current injected 200 pA, row): 47 APs/1s and 55 APs/1s and 62 APs/1s | Fast spiking interneurons APs/1s (current injected 220 pA, row): 51 APs/1s and 58 APs/1s and 67 APs/1s | Fast spiking interneurons APs/1s (current injected 240 pA, row): 55 APs/1s and 62 APs/1s and 73 APs/1s | Fast spiking interneurons APs/1s (current injected 260 pA, row): 58 APs/1s and 65 APs/1s and 77 APs/1s | Fast spiking interneurons APs/1s (current injected 280 pA, row): 61 APs/1s and 70 APs/1s and 82 APs/1s | Fast spiking interneurons APs/1s (current injected 300 pA, row): 65 APs/1s and 73 APs/1s and 86 APs/1s | Fast spiking interneurons APs/1s (current injected 320 pA, row): 68 APs/1s and 76 APs/1s and 89 APs/1s | Fast spiking interneurons APs/1s (current injected 340 pA, row): 70 APs/1s and 80 APs/1s and 96 APs/1s | Fast spiking interneurons APs/1s (current injected 360 pA, row): 73 APs/1s and 83 APs/1s and 100 APs/1s | Fast spiking interneurons APs/1s (current injected 380 pA, row): 74 APs/1s and 83 APs/1s and 100 APs/1s | Fast spiking interneurons APs/1s (current injected 400 pA, row): 75 APs/1s and 86 APs/1s and 103 APs/1s | Fast spiking interneurons APs/1s (current injected 420 pA, row): 77 APs/1s and 87 APs/1s and 101 APs/1s | Fast spiking interneurons APs/1s (current injected 440 pA, row): 77 APs/1s and 88 APs/1s and 103 APs/1s | Fast spiking interneurons APs/1s (current injected -20 pA): 0 APs/1s | Cumulative number of action potentials fired by each cell on increasing current injections (up to current injected 0 pA): 0 | Cumulative number of action potentials fired by each cell on increasing current injections (up to current injected 20 pA): 0 | Cumulative number of action potentials fired by each cell on increasing current injections (up to current injected 40 pA): 0 | Cumulative number of action potentials fired by each cell on increasing current injections (up to current injected 140 pA, listed as NBI-921252): 82 and 99 and 159 | Cumulative number of action potentials fired by each cell on increasing current injections (up to current injected 160 pA, listed as NBI-921252): 120 and 145 and 211 | Cumulative number of action potentials fired by each cell on increasing current injections (up to current injected 180 pA, listed as NBI-921252): 163 and 195 and 268 | Cumulative number of action potentials fired by each cell on increasing current injections (up to current injected 200 pA, listed as NBI-921252): 210 and 250 and 330 | Cumulative number of action potentials fired by each cell on increasing current injections (up to current injected 220 pA, listed as NBI-921252): 261 and 308 and 397 | Cumulative number of action potentials fired by each cell on increasing current injections (up to current injected 240 pA, listed as NBI-921252): 316 and 370 and 470 | Cumulative number of action potentials fired by each cell on increasing current injections (up to current injected 260 pA, listed as NBI-921252): 374 and 435 and 547 | Cumulative number of action potentials fired by each cell on increasing current injections (up to current injected 280 pA, listed as NBI-921252): 435 and 505 and 629 | Cumulative number of action potentials fired by each cell on increasing current injections (up to current injected 300 pA, listed as NBI-921252): 500 and 578 and 715 | Cumulative number of action potentials fired by each cell on increasing current injections (up to current injected 320 pA, listed as NBI-921252): 568 and 654 and 804 | Cumulative number of action potentials fired by each cell on increasing current injections (up to current injected 340 pA, listed as NBI-921252): 638 and 734 and 900 | Cumulative number of action potentials fired by each cell on increasing current injections (up to current injected 360 pA, listed as NBI-921252): 711 and 817 and 1000 | Cumulative number of action potentials fired by each cell on increasing current injections (up to current injected 380 pA, listed as NBI-921252): 785 and 900 and 1100 | Cumulative number of action potentials fired by each cell on increasing current injections (up to current injected 400 pA, listed as NBI-921252): 860 and 986 and 1203 | Cumulative number of action potentials fired by each cell on increasing current injections (up to current injected 420 pA, listed as NBI-921252): 937 and 1073 and 1304 | Cumulative number of action potentials fired by each cell on increasing current injections (up to current injected 440 pA, listed as NBI-921252): 1014 and 1161 and 1407 | Cumulative number of action potentials fired by each cell on increasing current injections (up to current injected -20 pA): 0
